# Experimental data taken from patent US20250205157A1, “TOPICAL RUXOLITINIB FOAM” (Incyte Corporation, priority 2023, published 2025).
# Tests used:
# [1] = Solubility of ruxolitinib phosphate in ethanol-water solutions and hydroethanolic foamable carrier components; assay type: physicochemical
# Procedure: Based on the good solubility of ruxolitinib phosphate in hydroethanolic mixtures, the solubility of ruxolitinib phosphate in a hydroethanolic base formulation was studied. Utilizing Method A (Materials and Methods), the formulations in Table 23 were prepared. […] PG was added as a penetration enhancer to facilitate better skin permeation of the API from application of the foam.
# [2] = Solubility of ruxolitinib phosphate in organic media; assay type: physicochemical; details: for Reported Solubility % w/w, ruxolitinib phosphate: ambient temperature
# Procedure: Under pre-formulation studies, the solubility of ruxolitinib phosphate was evaluated in organic media over the course of three days at ambient temperature.
# [3] = Chemical stability of foam formulations by HPLC (assay % LC, total impurities); assay type: physicochemical; details: for chemical stability, in words: to 3 months, 25° C./60% RH and 40° C./75% RH
# Text: The protocol used for determining the purity was a liquid chromatography (LC) method. The LC method is provided below.
# This method is for the determination of Ruxolitinib Phosphate in foam formulations that contain Ruxolitinib Phosphate as active pharmaceutical ingredient (API). The method is suitable for the determination of active content in stability screening samples. The method can also be used to estimate the level of major degradants of Ruxolitinib Phosphate.
# Foam formulations contain about 0.5% Ruxolitinib base (API added as Ruxolitinib Phosphate)
# Weigh accurately about 500 mg of sample into a tared 25 mL volumetric flask.
# Equilibrate the chromatographic system with starting mobile phase composition until a stable baseline is obtained. The following gradient (Table 12) at a flow rate of 1.0-1.5 mL/min is used: […]
# Using the instrument conditions, equilibrate the chromatographic system with mobile phase. Record the chromatograms of Ruxolitinib Phosphate peak for the standard and sample solutions. The retention time of principal peak in the HPLC chromatogram of the sample should correspond with the retention time of the principal peak produced by Ruxolitinib Phosphate Standard Solution. The retention time difference between sample and standard should not be more than 5%.
# [4] = Minipig plasma concentrations / toxicokinetic evaluation after topical foam; details: topical application of foam formulations
# [5] = Microscopic examination of the foam samples (drug recrystallisation); assay type: physicochemical
# [6] = system: alopecia; details: 8 mg and 12 mg BID orally; cited from earlier work
# [7] = 1,3-Dimethyl-2-Imadolidinone (DMI) (neat)
# [8] = Isopropyl Myristate (IPM) (neat)
structure (smiles),measurement,setting,value
N#CC[C@H](C1CCCC1)n1cc(-c2ncnc3[nH]ccc23)cn1 [Ruxolitinib phosphate],amount dissolved in hydroethanolic base,[1]; base having 60% ethanol with and without additional propylene glycol,approximately 3 % (w/w) on a free base basis
same,solubility (loading level) in ethanol:water,[1]; mixtures of 60:40 or 40:60 ethanol:water,~4 % on a free base basis (w/w)
same,"Calculated Solubility, % w/w in base form",[2]; [7],0.168 % w/w
same,"Reported Solubility % w/w, ruxolitinib phosphate",[2]; [7],0.22 % w/w
same,"Calculated Solubility, % w/w in base form",[2]; Castor Oil (neat),0.028 % w/w
same,"Reported Solubility % w/w, ruxolitinib phosphate",[2]; Castor Oil (neat),0.037 % w/w
same,"Calculated Solubility, % w/w in base form",[2]; DIPA (neat),<0.01 % w/w
same,"Reported Solubility % w/w, ruxolitinib phosphate",[2]; DIPA (neat),<0.01 % w/w
same,"Calculated Solubility, % w/w in base form",[2]; Ethyl Oleate (neat),<0.01 % w/w
same,"Reported Solubility % w/w, ruxolitinib phosphate",[2]; Ethyl Oleate (neat),<0.01 % w/w
same,"Calculated Solubility, % w/w in base form",[2]; Etocas 35 (neat),0.729 % w/w
same,"Reported Solubility % w/w, ruxolitinib phosphate",[2]; Etocas 35 (neat),0.962 % w/w
same,"Calculated Solubility, % w/w in base form",[2]; GTCC (neat),0.015 % w/w
same,"Reported Solubility % w/w, ruxolitinib phosphate",[2]; GTCC (neat),0.02 % w/w
same,"Calculated Solubility, % w/w in base form",[2]; [8],<0.01 % w/w
same,"Reported Solubility % w/w, ruxolitinib phosphate",[2]; [8],<0.01 % w/w
same,"Calculated Solubility, % w/w in base form",[2]; Light Mineral Oil (LMO) (neat),<0.01 % w/w
same,"Reported Solubility % w/w, ruxolitinib phosphate",[2]; Light Mineral Oil (LMO) (neat),<0.01 % w/w
same,"Calculated Solubility, % w/w in base form",[2]; Octadodecabol (ODD) (neat),0.022 % w/w
same,"Reported Solubility % w/w, ruxolitinib phosphate",[2]; Octadodecabol (ODD) (neat),0.029 % w/w
same,"Calculated Solubility, % w/w in base form",[2]; Oleth-3 (neat),0.513 % w/w
same,"Reported Solubility % w/w, ruxolitinib phosphate",[2]; Oleth-3 (neat),0.677 % w/w
same,"Calculated Solubility, % w/w in base form",[2]; Oleyl alcohol (neat),0.052 % w/w
same,"Reported Solubility % w/w, ruxolitinib phosphate","[2]; Oleyl alcohol (neat), no propellant",0.068 % w/w
same,"Calculated Solubility, % w/w in base form",[2]; PEG 300 (neat),1.169 % w/w
same,"Reported Solubility % w/w, ruxolitinib phosphate",[2]; PEG 300 (neat),1.543 % w/w
same,"Calculated Solubility, % w/w in base form",[2]; PEG400 (neat),0.846 % w/w
same,"Reported Solubility % w/w, ruxolitinib phosphate",[2]; PEG400 (neat),1.117 % w/w
same,"Calculated Solubility, % w/w in base form",[2]; Polysorabte 80 (neat),0.920 % w/w
same,"Reported Solubility % w/w, ruxolitinib phosphate",[2]; Polysorabte 80 (neat),1.214 % w/w
same,"Calculated Solubility, % w/w in base form",[2]; Polysorbate 20 (neat),0.957 % w/w
same,"Reported Solubility % w/w, ruxolitinib phosphate",[2]; Polysorbate 20 (neat),1.263 % w/w
same,"Calculated Solubility, % w/w in base form",[2]; Propylene Glycol (PG) (neat),1.651 % w/w
same,"Reported Solubility % w/w, ruxolitinib phosphate",[2]; Propylene Glycol (PG) (neat),2.179 % w/w
same,"Calculated Solubility, % w/w in base form",[2]; Span 20 (neat),0.877 % w/w
same,"Reported Solubility % w/w, ruxolitinib phosphate",[2]; Span 20 (neat),1.157 % w/w
same,"Calculated Solubility, % w/w in base form",[2]; Transcutol-P (neat),0.927 % w/w
same,"Reported Solubility % w/w, ruxolitinib phosphate",[2]; Transcutol-P (neat),1.223 % w/w
N#CC[C@H](C1CCCC1)n1cc(-c2ncnc3[nH]ccc23)cn1 [Ruxolitinib],"chemical stability, in words",[3],chemically stable
same,systemic exposure (plasma concentrations),[4],did not indicate therapeutic relevant concentrations
"[2H]C1([2H])C([C@@H](CC#N)n2cc(-c3ncnc4[nH]ccc34)cn2)C([2H])([2H])C([2H])([2H])C1([2H])[2H] [Deuruxolitinib, (3R)-3-(2,2,3,3,4,4,5,5-D8) cyclopentyl-3-[4-(7H-pyrrolo[2,3-d]pyrimidin-4-yl)-1H-pyrazol-1-yl]propanenitrile]",drug recrystallisation / solubility in the foam,[5],remained soluble in the foam formulation
same,clinical endpoint,[6],met the clinical endpoint
same,impurities,"[3]; 3-months, 25° C. and 40° C., method detection limit",< 0.05 % area
same,"chemical stability, in words",[3],chemically stable
same,systemic exposure (plasma concentrations),[4],did not indicate therapeutic relevant concentrations
